This is an account of results in article PMC5823858, “Endogenous insensitivity to the Orco agonist VUAA1 reveals novel olfactory receptor complex properties in the specialist fly Mayetiola destructor” (Scientific Reports, 2018).

What all share (experiment): Fluo-4AM calcium fluorescence, plate reader
Assay [1] concerns the target T1, DmelOR56a + MdesOrco (Drosophila melanogaster, UniProt Q9V8Y7).
T1 construct: gene Or56a; heterospecific complex: D. melanogaster OR56a (V5 tag) with Mayetiola destructor Orco (c-myc tag), TREx/HEK293; with Odorant receptor coreceptor (Mayetiola destructor)
T1 sequence (Q9V8Y7 1-419): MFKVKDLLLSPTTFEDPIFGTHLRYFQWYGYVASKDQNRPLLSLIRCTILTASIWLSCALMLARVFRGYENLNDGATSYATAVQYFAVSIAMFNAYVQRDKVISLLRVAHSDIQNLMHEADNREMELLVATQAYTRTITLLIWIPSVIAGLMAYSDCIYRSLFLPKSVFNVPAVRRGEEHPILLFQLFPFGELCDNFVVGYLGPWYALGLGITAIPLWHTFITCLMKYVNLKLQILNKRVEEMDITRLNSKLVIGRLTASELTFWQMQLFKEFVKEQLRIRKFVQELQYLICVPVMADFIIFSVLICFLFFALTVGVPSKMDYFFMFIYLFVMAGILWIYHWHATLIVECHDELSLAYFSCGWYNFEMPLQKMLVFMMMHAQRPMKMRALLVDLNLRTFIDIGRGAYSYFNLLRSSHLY
T1 sequence (A0A1D8GZG0 1-466 partner): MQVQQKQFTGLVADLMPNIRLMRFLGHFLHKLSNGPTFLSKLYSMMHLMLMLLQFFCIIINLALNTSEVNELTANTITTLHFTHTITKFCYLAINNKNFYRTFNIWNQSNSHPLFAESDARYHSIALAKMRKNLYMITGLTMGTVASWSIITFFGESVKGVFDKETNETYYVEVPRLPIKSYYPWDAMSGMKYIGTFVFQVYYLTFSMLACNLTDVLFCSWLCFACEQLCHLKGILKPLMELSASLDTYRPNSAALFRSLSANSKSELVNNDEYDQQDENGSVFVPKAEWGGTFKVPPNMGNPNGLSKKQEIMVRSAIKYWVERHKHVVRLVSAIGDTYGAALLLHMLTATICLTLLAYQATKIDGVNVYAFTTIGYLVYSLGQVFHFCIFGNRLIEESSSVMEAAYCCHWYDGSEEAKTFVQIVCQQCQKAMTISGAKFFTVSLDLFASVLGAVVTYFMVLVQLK
The assay is classed as cell-based. Particulars: agonist of OR; heterospecific Orco co-expressed.

Assay [2] has as its target T2, DmelOR56a + AsegOrco (Drosophila melanogaster, UniProt Q9V8Y7).
T2 construct: gene Or56a; heterospecific complex: D. melanogaster OR56a (V5 tag) with Agrotis segetum Orco (c-myc tag), TREx/HEK293; with Odorant receptor coreceptor (Agrotis segetum)
T2 sequence (Q9V8Y7 1-419): T1 sequence (Q9V8Y7 1-419)
T2 sequence (U5KJY5 2-473 partner limits assumed): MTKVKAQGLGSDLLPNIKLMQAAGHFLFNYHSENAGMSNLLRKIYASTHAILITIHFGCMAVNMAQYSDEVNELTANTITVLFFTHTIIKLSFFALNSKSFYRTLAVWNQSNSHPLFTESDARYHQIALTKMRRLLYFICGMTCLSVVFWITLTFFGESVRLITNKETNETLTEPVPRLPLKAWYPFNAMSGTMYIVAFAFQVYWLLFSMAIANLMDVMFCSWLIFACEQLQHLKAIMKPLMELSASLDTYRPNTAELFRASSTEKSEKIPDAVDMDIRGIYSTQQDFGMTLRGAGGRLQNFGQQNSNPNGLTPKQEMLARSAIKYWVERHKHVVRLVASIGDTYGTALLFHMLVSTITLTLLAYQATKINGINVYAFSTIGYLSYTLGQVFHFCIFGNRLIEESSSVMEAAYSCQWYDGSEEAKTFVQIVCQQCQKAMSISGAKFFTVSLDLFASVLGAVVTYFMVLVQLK
The class given is cell-based. Conditions: agonist of OR; heterospecific Orco co-expressed. The text has this:
Fluo-4AM calcium fluorescence, plate reader on DmelOR56a + AsegOrco | they responded well to their respective OR-specific ligand

Assay [3] addresses T3, DmelOR56a + DmelOrco (Drosophila melanogaster, UniProt Q9V8Y7).
T3 construct: gene Or56a; stoichiometry unknown; with Odorant receptor coreceptor
T3 sequence (Q9V8Y7 1-419): T1 sequence (Q9V8Y7 1-419)
T3 sequence (Q9VNB5 1-486 partner): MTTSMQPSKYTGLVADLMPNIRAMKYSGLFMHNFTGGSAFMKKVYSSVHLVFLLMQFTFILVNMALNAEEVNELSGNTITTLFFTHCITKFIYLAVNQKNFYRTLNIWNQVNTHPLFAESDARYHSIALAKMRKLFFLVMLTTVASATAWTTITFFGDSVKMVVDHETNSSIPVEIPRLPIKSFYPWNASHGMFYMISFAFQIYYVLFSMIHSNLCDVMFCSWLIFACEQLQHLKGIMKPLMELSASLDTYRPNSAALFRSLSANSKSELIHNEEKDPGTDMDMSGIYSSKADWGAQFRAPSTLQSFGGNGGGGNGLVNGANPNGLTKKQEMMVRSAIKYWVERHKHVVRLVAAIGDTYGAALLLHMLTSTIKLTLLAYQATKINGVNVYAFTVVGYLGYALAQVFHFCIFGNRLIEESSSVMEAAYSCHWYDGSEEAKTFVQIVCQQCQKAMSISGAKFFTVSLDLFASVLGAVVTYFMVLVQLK
The class given is cell-based. Conditions: agonist of OR; OR and Orco co-expressed. The text has this:
Fluo-4AM calcium fluorescence, plate reader on DmelOR56a + DmelOrco | when DmelOR56a was co-expressed with WT DmelOrco the cells responded dose-dependently to geosmin

For assay [4], the target named is T4, MdesOrco (Mayetiola destructor, UniProt A0A1D8GZG0, A350S/C230Q/C408S/H81F/I150T/N133L/T205L).
T4 construct: homomeric channel
T4 sequence (A0A1D8GZG0 1-466 H81F/N133L/I150T/T205L/C230Q/A350S/C408S): T1 sequence (A0A1D8GZG0 1-466 partner)
The class given is cell-based. The text has this: Fluo-4AM calcium fluorescence, plate reader on MdesOrco | contained the seven point mutations responded well to VUAA1

In assay [5] the target is T5, MdesOrco (Mayetiola destructor, UniProt A0A1D8GZG0, A350S/H81F/N133L).
T5 construct: homomeric channel
T5 sequence (A0A1D8GZG0 1-466 H81F/N133L/A350S): T1 sequence (A0A1D8GZG0 1-466 partner)
The class given is cell-based. The source says:
Fluo-4AM calcium fluorescence, plate reader on MdesOrco | MdesOrco^(H81F, N133L, A350S) responded similarly to VUAA1 in HEK293 cells

The target in assay [6] is T6, AsegOrco (Agrotis segetum, UniProt U5KJY5).
T6 construct: homomeric channel
T6 sequence (U5KJY5 2-473 limits assumed): T2 sequence (U5KJY5 2-473 partner limits assumed)
The assay is classed as cell-based. The source says: Fluo-4AM calcium fluorescence, plate reader on AsegOrco | WT AsegOrco and DmelOrco responded dose-dependently to VUAA1

Assay [7] has as its target T7, DmelOrco (Drosophila melanogaster, UniProt Q9VNB5).
T7 construct: gene Orco; homomeric channel
T7 sequence (Q9VNB5 1-486): T3 sequence (Q9VNB5 1-486 partner)
The class given is cell-based. The text has this: Fluo-4AM calcium fluorescence, plate reader on DmelOrco | WT AsegOrco and DmelOrco responded dose-dependently to VUAA1

Assay [8] has as its system T8, AsegOR7 + MdesOrco.
T8 construct: gene OR7; heterospecific complex: A. segetum OR7 (V5 tag) with Mayetiola destructor Orco (c-myc tag), TREx/HEK293; with Odorant receptor coreceptor (Mayetiola destructor)
The class given is cell-based, Agrotis segetum. Conditions: agonist of OR; heterospecific Orco co-expressed.

Assay [9] relates to T9, AsegOR7 + AsegOrco.
T9 construct: gene OR7; stoichiometry unknown; with Odorant receptor coreceptor
The class given is cell-based, Agrotis segetum. Particulars: agonist of OR; OR and Orco co-expressed. The source says: Fluo-4AM calcium fluorescence, plate reader on AsegOR7 + AsegOrco | when AsegOR7 was co-expressed with WT AsegOrco the cells responded dose dependently

Assay [10] has as its system T10, AsegOR7 + DmelOrco.
T10 construct: gene OR7; heterospecific complex: A. segetum OR7 (V5 tag) with Drosophila melanogaster Orco (c-myc tag), TREx/HEK293; with Odorant receptor coreceptor (Drosophila melanogaster)
The assay is classed as cell-based, Agrotis segetum. Conditions: agonist of OR; heterospecific Orco co-expressed. The source says:
Fluo-4AM calcium fluorescence, plate reader on AsegOR7 + DmelOrco | they responded well to their respective OR-specific ligand

In assay [11] the test system is T8, AsegOR7 + MdesOrco. The assay is classed as cell-based, Agrotis segetum. Particulars: agonist of OR; heterospecific mutant Orco co-expressed. The text has this: Fluo-4AM calcium fluorescence, plate reader on AsegOR7 + MdesOrco | when co-expressed with either version of MdesOrco
The test system of assay [12] is T9, AsegOR7 + AsegOrco. The assay is classed as cell-based, Agrotis segetum. Particulars: agonist of OR; OR and mutant Orco co-expressed.
For assay [13], the system named is T11, MdesOR115 + DmelOrco.
T11 construct: gene OR115; heterospecific complex: M. destructor OR115 (V5 tag) with Drosophila melanogaster Orco (c-myc tag), TREx/HEK293; with Odorant receptor coreceptor (Drosophila melanogaster)
The assay is classed as cell-based, Mayetiola destructor. Conditions: agonist of OR; heterospecific Orco co-expressed.

In assay [14] the test system is T12, MdesOR115 + MdesOrco.
T12 construct: gene OR115; stoichiometry unknown; with Odorant receptor coreceptor
The class given is cell-based, Mayetiola destructor. Particulars: agonist of OR; OR and mutant Orco co-expressed. The text has this: Fluo-4AM calcium fluorescence, plate reader on MdesOR115 + MdesOrco | when co-expressed with either WT MdesOrco or MdesOrco^(H81F, N133L, A350S)

Assay [15] relates to T13, MdesOR115 + AsegOrco.
T13 construct: gene OR115; heterospecific complex: M. destructor OR115 (V5 tag) with Agrotis segetum Orco (c-myc tag), TREx/HEK293; with Odorant receptor coreceptor (Agrotis segetum)
The assay is classed as cell-based, Mayetiola destructor. Conditions: agonist of OR; heterospecific Orco co-expressed.

In assay [16] the test system is T12, MdesOR115 + MdesOrco. The assay is classed as cell-based, Mayetiola destructor. Particulars: agonist of OR; OR and Orco co-expressed.

The term EC50 denotes the concentration that produces a half-maximal response. For `C[C@H]1CCC[C@@]2(C)CCCC[C@]12O` [geosmin], the EC50 in assay [1] came to 0.0935 µM; in assay [2] it was 0.0372 µM; in assay [3] it was 0.0191 µM.
Regarding `CCc1ccc(NC(=O)CSc2nnc(-c3cccnc3)n2CC)cc1` [VUAA1, N-(4-ethylphenyl)-2-((4-ethyl-5-(3-pyridinyl)-4H-1,2,4-triazol-3-yl)thio)acetamide], the EC50 was 26.3 µM in assay [4], 25 µM in assay [5], 27.3 µM in [6] and 15.3 µM in [7].
In the case of `CCCC/C=C\CCCCOC(C)=O` [(Z)-5-decenyl acetate], the 50% effective concentration (EC50) in assay [8] was determined as 2.5 µM; in assay [9] it was 2.3 µM; in assay [10] it was 1.2 µM; in assay [11], 2.8 µM; in [12], 2.2 µM.
As to `CC/C=C/C=C/CCCCC[C@H](C)OC(C)=O` [(2S,8E,10E)-8,10-tridecadien-2-yl acetate], the EC50 in [13] came out at 6.2 µM; in assay [14], 3.1 µM; in assay [15], 3.5 µM; in assay [16], 2.6 µM.
